“Also recorded” adds a separate entry of the source. Read-outs that look alike come from different tables or passages of the source.
What was measured:
UGT = test: Effect of multiple-dose lorlatinib on the pharmacokinetics of acetaminophen; format: in vivo, human
CYP2B6 [1] = test: Effect of multiple-dose lorlatinib on the pharmacokinetics of bupropion; format: in vivo, human
CYP2D6 = conditions: in vitro; cited from earlier work
CYP3A4/5 [2] = conditions: cited from earlier work
CYP3A4/5 [3] = conditions: lorlatinib with itraconazole; cited from earlier work
[4] = system: human pregnane X receptor (PXR); conditions: cited from earlier work
plasma proteins = conditions: cited from earlier work
[5] = system: human lymphoblastoid TK6 cells; conditions: cited from earlier work
CYP3A4/5 [6] = conditions: lorlatinib with modafinil; cited from earlier work
CYP2C9 [7] = conditions: in vitro; cited from earlier work
CYP2C8 = conditions: in vitro; cited from earlier work
P-glycoprotein (P-gp) [8] = conditions: MDCK II-MDR1 cells, substrate digoxin; cited from earlier work
CYP2C19 = conditions: in vitro; cited from earlier work
[9] = after oral administration; cited from earlier work
CYP3A4/5 [10] = conditions: cited from earlier work; remark: listed apart in the source
P-glycoprotein (P-gp) [11] = molecular target: P-glycoprotein (P-gp) (Homo sapiens, UniProt P08183); test: Effect of multiple-dose lorlatinib on the pharmacokinetics of fexofenadine; format: in vivo; conditions: lorlatinib 100 mg QD at steady state; probe fexofenadine
Sequence of P-glycoprotein (P-gp) (Homo sapiens, UniProt P08183) (P08183 whole entry): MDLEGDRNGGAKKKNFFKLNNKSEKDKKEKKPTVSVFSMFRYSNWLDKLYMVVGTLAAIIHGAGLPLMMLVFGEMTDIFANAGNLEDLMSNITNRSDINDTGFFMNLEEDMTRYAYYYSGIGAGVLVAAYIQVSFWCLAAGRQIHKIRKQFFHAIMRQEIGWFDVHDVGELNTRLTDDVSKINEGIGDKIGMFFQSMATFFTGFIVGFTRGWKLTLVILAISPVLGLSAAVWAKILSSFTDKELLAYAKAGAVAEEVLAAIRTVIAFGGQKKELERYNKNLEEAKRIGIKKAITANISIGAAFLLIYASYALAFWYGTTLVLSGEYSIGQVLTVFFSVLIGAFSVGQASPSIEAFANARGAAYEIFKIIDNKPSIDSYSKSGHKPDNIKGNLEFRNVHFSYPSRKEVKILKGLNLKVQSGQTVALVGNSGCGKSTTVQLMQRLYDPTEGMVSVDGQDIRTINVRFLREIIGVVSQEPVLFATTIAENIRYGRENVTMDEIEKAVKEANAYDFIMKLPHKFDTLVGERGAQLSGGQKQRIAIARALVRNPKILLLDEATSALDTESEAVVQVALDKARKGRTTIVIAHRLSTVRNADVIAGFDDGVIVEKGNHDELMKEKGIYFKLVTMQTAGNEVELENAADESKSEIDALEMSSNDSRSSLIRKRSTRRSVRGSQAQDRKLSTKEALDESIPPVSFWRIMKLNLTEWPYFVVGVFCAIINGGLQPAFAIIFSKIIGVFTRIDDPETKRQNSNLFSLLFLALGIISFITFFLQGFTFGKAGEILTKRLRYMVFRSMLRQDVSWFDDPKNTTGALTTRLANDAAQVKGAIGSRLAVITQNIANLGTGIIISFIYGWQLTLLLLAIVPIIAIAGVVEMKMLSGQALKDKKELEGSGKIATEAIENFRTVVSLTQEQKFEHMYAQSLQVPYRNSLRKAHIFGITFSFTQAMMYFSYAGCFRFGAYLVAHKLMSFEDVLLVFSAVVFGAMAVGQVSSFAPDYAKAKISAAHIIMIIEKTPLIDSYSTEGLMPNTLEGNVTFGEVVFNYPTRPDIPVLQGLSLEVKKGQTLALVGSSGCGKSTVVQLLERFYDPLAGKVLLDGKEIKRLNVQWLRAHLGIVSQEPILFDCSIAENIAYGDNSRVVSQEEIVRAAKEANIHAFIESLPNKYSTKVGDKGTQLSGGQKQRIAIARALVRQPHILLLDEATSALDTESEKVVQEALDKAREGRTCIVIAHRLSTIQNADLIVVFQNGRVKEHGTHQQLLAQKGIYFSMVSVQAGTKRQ

CYP3A4/5 [12] = conditions: cited from earlier work; remark: listed apart in the source
bacterial assay = conditions: in vitro bacterial assay; cited from earlier work
CYP1A2 = conditions: in vitro; cited from earlier work
bone marrow of rats = conditions: cited from earlier work
CYP2B6 [13] = conditions: in vitro; cited from earlier work
CYP2C9 [14] = test: Effect of multiple-dose lorlatinib on the pharmacokinetics of tolbutamide; format: in vivo, human; conditions: lorlatinib 100 mg QD at steady state; probe tolbutamide
[15] = acetaminophen with lorlatinib 100 mg QD vs acetaminophen alone
[16] = single oral 2-mg dose of midazolam with lorlatinib 150 mg QD

## CC(=O)Nc1ccc(O)cc1 [Acetaminophen, acetaminophen]
UGT; [15]
  Decrease in AUC∞: 45%
  Decrease in Cmax: 28%

## CC(NC(C)(C)C)C(=O)c1cccc(Cl)c1 (stereo not shown) [Bupropion, bupropion]
CYP2B6 [1]; bupropion with lorlatinib 100 mg QD vs bupropion alone
  Decrease in Cmax: 27%

## C[C@H]1Oc2cc(cnc2N)-c2c(nn(C)c2C#N)CN(C)C(=O)c2ccc(F)cc21 [Lorlatinib, (10R)-7-amino-12-fluoro-2,10,16-trimethyl-15-oxo-10,15,16,17-tetrahydro-2H-8,4-(metheno)pyrazolo[4,3-h][2,5,11]-benzoxadiazacyclotetradecine-3-carbonitrile]
CYP2D6
  Inhibition of CYP2D6: do not inhibit
CYP3A4/5 [2]; after multiple dosing, probe midazolam
  Inducer classification, CYP3A4/5: moderate (≥ 50% to < 80%)
CYP2B6 [1]; lorlatinib 100 mg QD at steady state, probe bupropion
  Inducer classification, CYP2B6: weak (≥ 20% to < 50%)
CYP3A4/5 [3]
  Increase in AUC∞: 42%
  Increase in Cmax: 24%
[4]
  PXR activation: activate PXR
Plasma proteins
  Binding to plasma proteins: 66%
[5]
  Aneugenicity in vitro: aneugenic
CYP3A4/5 [6]
  Reduction in AUC∞: 23%
  Reduction in Cmax: 22%
CYP2C9 [7]
  Inhibition of CYP2C9: do not inhibit
CYP2C8
  Inhibition of CYP2C8: do not inhibit
P-glycoprotein (P-gp) [8]
  Inhibition of P-gp efflux: inhibit
CYP2C19
  Inhibition of CYP2C19: do not inhibit
[9]
  Bioavailability: 81%
CYP3A4/5 [10]; coadministration of lorlatinib with rifampin
  Transaminase / liver enzyme levels: elevated liver enzyme levels; also recorded: rapid elevations in transaminase values
CYP3A4/5 [10]; lorlatinib with rifampin
  Reduction in Cmax: 76%
  Reduction in mean AUC∞: 85%
P-glycoprotein (P-gp) [11]
  Inducer classification, P-gp: moderate (≥ 50% to < 80%)
CYP3A4/5 [12]
  Effect on CYP3A4/5: time-dependent inhibitor and inducer
Bacterial assay
  Mutagenicity: not mutagenic
UGT; lorlatinib 100 mg QD at steady state, probe acetaminophen
  Inducer classification, UGT: weak (≥ 20% to < 50%)
CYP1A2
  Inhibition of CYP1A2: do not inhibit
Bone marrow of rats
  Aneugenicity in vivo: aneugenic
CYP2B6 [13]
  Inhibition of CYP2B6: do not inhibit
CYP2C9 [14]
  Inducer classification, CYP2C9: weak (≥ 20% to < 50%)

## Cc1ncc2n1-c1ccc(Cl)cc1C(c1ccccc1F)=NC2 [midazolam]
CYP3A4/5 [2]; [16]
  Decrease in AUC∞: 64%
  Decrease in Cmax: 50%
